Columns and labels:
Assay type in all cases: cell-based, human
[1] = test system: Wnt cell surface receptor LRP6; assay: Canonical Wnt-β-catenin signaling in hMSCs (immunoblot of phospho-LRP6 and active β-catenin); details: IWP-2 2 μM incubation 48 h alone
Method: The inhibitor of Wnt production (IWP-2; Tocris Bioscience, Minneapolis, Minn., USA; 2 μM×24-48 h) was used to block production of endogenous Wnt proteins (Chen et al., 2009, Nat Chem Biol, 5: 100-107; Clevers et al., 2012, Cell, 149: 1192-1205). All other chemicals, unless indicated, were purchased from Sigma (St. Louis, Mo., USA).
Adipose-derived hMSCs [American Type Culture Collection (ATCC), Manasses, Va., USA; PCS-500-011) were propagated in MSC basal medium supplemented with MSC growth kit (ATCC). Cells were CD29, CD44, CD105, and CD166 positive and negative for CD 31, CD34, and CD45. Interrogation of Wnt-β-catenin signaling was done in ATCC MSC basal medium with 2% FBS. PEDF (500 ng/ml) was added for 6 h. Passage 2 and 3 hMSCs were used for Wnt signaling experiments. For adipocyte conversion, cells (5000 cells/cm^2) were placed in adipocyte differentiation medium (ATCC; PCS-500-050) for 9-10 d. For osteoblast differentiation, cells (5000 cells/cm^2) were differentiated in osteoblast differentiation medium (ATCC; PCS-500-052) for 10-21 d. Alkaline phosphatase kit (Sigma) was used to stain osteoblasts.
Immunoblotting was performed as described previously (Schmitz et al., 2011, Am J Pathol, 179: 2990-2999). Proteins were separated by 10% SDS-PAGE on gradient gels (Bio-Rad, Hercules, Calif., USA). Antibodies against nonphosphorylated β-catenin, total β-catenin, phospho-LRP6 (serine 1490), total LRP6 (Cell Signaling Technologies, Danvers, Mass., USA), and alkaline phosphatase (Developmental Studies Hybridoma Bank, University of Iowa, Iowa City, Iowa, USA). To assess signaling through the Wnt coreceptor LRP6, 3T3 adipocyte precursors with vector and LRP6-KO shRNA were used (Liu et al., 2012, J Biol Chem, 287: 7213-7223). On confluence, cells were serum starved for 48 h, and then changed to DMEM with 10% FCS (d 0). PEDF (10 nM) was added on d 0, and cells were harvested after 48 h. Knockdown was confirmed by immunoblotting for total LRP6. β-actin (Sigma) was used as a loading control.

[2] = test system: hMSCs; assay: Mineralization of hMSCs under continuous Wnt3a (Alizarin red, 21 days)
Method: Experiments were conducted to evaluate the effect of PEDF-derived peptides on the mineralization of hMSCs. […] For “late” groups, PEDF 34-mer was added only during the last 8 days of the differentiation protocol. Mineralization was assessed by Alizarin red staining (FIG. 14C).

[3] = test system: β-catenin; assay: Active β-catenin and mature osteoblast gene expression in hMSC cultures with Wnt3a and PEDF peptides; details: hMSC differentiated for 21 days, 50 ng/ml Wnt3a and 100 nM peptide
Method: Experiments were conducted to evaluate the effect of Wnt3a and PEDF-derived peptides on β-catenin, a transcriptional regulator of osteoblast differentiation. Cultures incubated in 50 ng/ml Wnt3a alone or in combination with 100 nM PEDF-derived peptides.

| Molecule | LRP6 phosphorylation (endogenous Wnt production) [1] | Alizarin red quantitation relative to native PEDF 34-mer ([2]; 100 nM peptide with continuous Wnt3a 50 ng/ml, 21 days) | mineralization of hMSCs, final phase addition ([2]; added last 8 of 21 days) | osteoblast mineralization, peptide added in the last eight days ([2]; added last 8 of 21 days, continuous Wnt3a 50 ng/ml) | expression of osterix (OSX) [3] |
| --- | --- | --- | --- | --- | --- |
| Cc1ccc2nc(NC(=O)CSc3nc4c(c(=O)n3-c3ccccc3)SCC4)sc2c1 [IWP-2, reference compound] | near absence of LRP6 phosphorylation | – | – | – | – |
| DPFFKVPVNALAAAVSNFGYDLYRVRSSTSPTTN [SEQ ID NO: 4, mutated K→A PEDF 34-mer peptide] | – | gain of function properties | stimulates mineralization | comparable to the full-length protein added for 21 days | increases the expression of osterix (OSX) |
